Holding throughout (test): NCI tumour cell line growth inhibition, 48 h
Test [1] deals with DU-145 prostate.
The test system of test [2] is SNB-75 CNS.
The test system of test [3] is OVCAR-4 ovarian.
Test [4] deals with K-562 leukemia.
Test [5] concerns HOP-62 NSCLC.
The test system of test [6] is U251 CNS.
Test [7] relates to SF-268 CNS.
Test [8] deals with SK-MEL-5 melanoma.
Test [9] has as its system UO-31 renal.

The record followed here is PubChem BioAssay (NCI).

The structures appear in SMILES notation.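 The compound was tested at five concentrations on cells cultured in 96-well plates, with a 48-hour exposure period. At the GI50, growth is halved. The concentration for full growth arrest is given as TGI.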 Where a SMILES comes first, the peptide text is derived from it. [ ]: non-standard residue; d: D form. The star is where a group is joined. Bn2Val = CC(C)[C@@H](C(=O)*)N(Cc1ccccc1)Cc1ccccc1; NH(4-Cl-benzyl) = Clc1ccc(CN*)cc1; NMeV = CN[C@H](C(=O)O)C(C)C; dNMeA = CN[C@H](C)C(=O)O Some results are limits rather than exact numbers.

For the molecule `CCCCCCCCCCCCCCCCCCNc1nc(=O)n(C2CC(O)C(COP(=O)(O)O)O2)cc1F` (centres undefined), the TGI in test [1], in [2], in [3], in [4], in test [5] and in [6] was more than 100 µM each time. Besides, the TGI in test [7], in test [8] and in test [9] was more than 100 µM each time.
Turning to `COc1cc(C2c3cc4c(cc3C3OC[C@@H]2C3CO)OCO4)cc(OC)c1OC` (some centres undefined), the GI50 in test [1] was 30.4 µM; in [5], 47.4 µM. Further, the TGI in test [1], in [2], in [3], in test [4], in test [5] and in test [6] was more than 100 µM throughout. In addition, the TGI in test [7] is more than 100 µM; in [8], 27.9 µM; in test [9] it was more than 100 µM.
As to `COc1ccc(Nc2ccc3ccccc3c2-c2c(O)ccc3ccccc23)cc1`, the TGI came out at 33.8 µM in [1]; 46.2 µM in [2]; 41.9 µM in test [3]; 54.4 µM in [4]; 25.1 µM in test [5]; 56 µM in [6]. The TGI in test [7] was 35.9 µM; in test [8], 32.6 µM; in [9] it was 26.4 µM.
Regarding `COc1cnc2c(c1)C(=O)c1c-2n(CCCNCCO)c(=O)c2ccncc12`, the GI50 in [1] was 1.36 µM; in test [2], 1.13 µM; in test [3] it was 1.38 µM; in test [4], 0.856 µM; in [5] it was 1.32 µM; in test [6], 0.708 µM. Further, the results for the GI50 in [7], in test [8] and in test [9] were 1.28 µM, 1.43 µM and 1.3 µM, respectively. In addition, the TGI in test [1] came to 6.73 µM; in test [2] it was 4.2 µM; in [3] it was 7.46 µM; in test [4], 13 µM; in [5], 26.6 µM; in test [6], 19.4 µM. In addition, the TGI in test [7] is 9.26 µM; in test [8], 3.38 µM; in test [9], 10.1 µM.
In the case of `C=C(C)[C@H]1C2=CC(C)=C(O2)[C@@H](O[C@@H]2c3oc(cc3C)[C@H](C(=C)C)[C@H]3C=C(CC[C@H]2C(=C)C)C(=O)O3)[C@H](C(=C)C)CCC2=C[C@H]1OC2=O`, the TGI in test [1], in [2], in test [3], in test [4], in [5] and in test [6] was more than 100 µM throughout. Also, the TGI in test [7], in [8] and in test [9] was more than 100 µM each time.
As to `O=C(N/N=C/C=C/c1ccccc1)c1ccccc1Nc1ccccc1C(=O)N/N=C/C=C/c1ccccc1`, the TGI in [1] is more than 100 µM; in [2], more than 100 µM; in test [3], more than 100 µM; in [4], more than 100 µM; in test [5] it was 70.4 µM; in [6], more than 100 µM. Besides, the TGI in test [7], in test [8] and in [9] was more than 100 µM each time.
In the case of `CC(Oc1ccccc1Cl)C(=O)NN1C(=O)CSC1c1ccccc1` (centres undefined), the TGI in test [1], in test [2], in test [3], in test [4], in test [5] and in test [6] was more than 100 µM in each case. Moreover, the TGI in [7], in test [8] and in test [9] was more than 100 µM each time.
Turning to `N#Cc1cc2c(n(C3OC(CO)C(O)C(O)C3O)c1=S)CCCCCC2` (centres undefined), the TGI in test [1], in [2], in test [3], in test [4], in [5] and in test [6] was more than 100 µM in each case. The TGI in test [7], in test [8] and in test [9] was more than 100 µM in each case.
In the case of `NN=C(CC(O)(C(F)(F)Cl)C(F)(F)Cl)CC(O)(C(F)(F)Cl)C(F)(F)Cl`, the TGI in test [1], in [2], in test [3], in test [4], in [5] and in test [6] was more than 10 µM in each case. Also, the TGI in [7] and in test [8] was more than 10 µM each time.
As for `O=C(Nc1ccccc1C(=O)NCc1ccccc1)/C(=C/c1ccccc1)NC(=O)c1ccccc1`, the TGI in test [1], in test [2], in test [3], in [4], in test [5] and in test [6] was more than 100 µM in each case. Moreover, the TGI in test [7], in [8] and in [9] was more than 100 µM in each case.
With `C=C=C(CC(CC(=C)Br)(C(=O)OC)C(=O)OC)S(=O)(=O)c1ccccc1`, the TGI is 3.35 µM in test [1]; 20.5 µM in test [2]; 21.2 µM in test [3]; more than 100 µM in [4]; 12.4 µM in test [5]; 2.95 µM in [6]. Moreover, the results for the TGI in test [7], in test [8] and in test [9] were 7.45 µM, 10.3 µM and 3.69 µM, respectively.
Consider `c1ccc(/C(=N/Nc2ccncn2)c2ccccn2)cc1`, for which the TGI is more than 100 µM in test [1]; 57.8 µM in test [2]; more than 100 µM in [3]; more than 100 µM in test [4]; more than 100 µM in test [5]; more than 100 µM in test [6]. Also, the TGI in [7] was 50.9 µM; in test [8] it was more than 100 µM; in test [9] it was 67.3 µM.
With `Cc1cc(OC(=O)NCn2cc(-c3ccccc3)nn2)ccc1Cl`, the TGI in test [1], in test [2], in test [3], in test [4], in test [5] and in test [6] was more than 100 µM in each case. Further, the TGI in [7] and in [8] was more than 100 µM each time.
With `CC(C)[C@H](NC(=O)[C@H](C(C)C)N(Cc1ccccc1)Cc1ccccc1)C(=O)N(C)[C@H](C(=O)N1CCC[C@H]1C(=O)N(C)[C@H](C)C(=O)NCc1ccc(Cl)cc1)C(C)C` (Bn2Val-V[NMeV]P[dNMeA]-{NH(4-Cl-benzyl)}), the TGI is more than 100 µM in test [1]; 29.6 µM in [2]; more than 100 µM in [3]; more than 100 µM in [4]; 29.5 µM in [5]; 20.1 µM in [6]. Besides, the TGI in test [7] came out at 11.2 µM; in test [8], 13.4 µM.
